{"source": "patent US20240262842A1", "about": "“SMALL MOLECULE INHIBITORS OF KRAS G12C MUTANT” (Merck Sharp & Dohme LLC, priority 2021, published 2024)", "target": "biotinylated KRAS G12C protein (GMP-PNP loaded) and GST-tagged Ras binding domain of c-RAF (Homo sapiens, UniProt P01116, C118S/C51S/C80L/G12C)", "experiment": "RAS:RAF-RBD binding assay (TR-FRET)", "conditions": "30-minute incubation of compound with KRAS G12C before RAF-RBD; Table 4; read-out: IC50"}
{"molecule": "CN1CCc2cc(C(=O)c3cc(F)c(NC(=O)/C=C/CNC4(C)COC4)c(F)c3)n3cccc(c23)-c2c(C(F)(F)F)cc3c(cnn3C)c21", "note": "[Example 283, (E)-N-(4-(9,12-dimethyl-7-(trifluoromethyl)-9,12,13,14-tetrahydroindolizino[8′,1′:4,5,6]azocino[2,3-e]indazole-2-carbonyl)-2,6-difluorophenyl)-4-((3-methyloxetan-3-yl)amino)but-2-enamide]", "values": [{"measurement": "IC50", "result": 64.7, "unit": "nM"}]}
{"molecule": "Cc1nc2c3c(c(C(F)(F)F)cc2n1C)-c1cccn2c(C(=O)c4cc(F)c(NC(=O)/C=C/CN5CC(F)C5)c(F)c4)cc(c12)CCN3C", "note": "[Example 285, (E)-N-(2,6-difluoro-4-(9,10,12-trimethyl-7-(trifluoromethyl)-9,12,13,14-tetrahydroimidazo[4″,5″:5′,6′]benzo[1′,2′:2,3]azocino[4,5,6-hi]indolizine-2-carbonyl)phenyl)-4-(3-fluoroazetidin-1-yl)but-2-enamide]", "values": [{"measurement": "IC50", "result": 85, "unit": "nM"}]}
{"molecule": "COCc1nc2c3c(c(OC)cc2n1C)-c1cccn2c(C(=O)c4cc(F)c(NC(=O)/C(F)=C/CNC5(C)CC5)c(F)c4)cc(c12)CCN3C", "note": "[Example 286, (Z)-N-(2,6-difluoro-4-(7-methoxy-10-(methoxymethyl)-9,12-dimethyl-9,12,13,14-tetrahydroimidazo[4″,5″:5′,6′]benzo[1′,2′:2,3]azocino[4,5,6-hi]indolizine-2-carbonyl)phenyl)-2-fluoro-4-((1-methylcyclopropyl)amino)but-2-enamide]", "values": [{"measurement": "IC50", "result": 92.8, "unit": "nM"}]}
{"molecule": "COCc1nc2c3c(c(OC)cc2n1C)-c1cccn2c(C(=O)c4cc(F)c(NC(=O)/C=C/CNC(C)(C)C)c(F)c4)cc(c12)CCN3C", "note": "[Example 288, mono((E)-2-(4-(4-(tert-butylammonio)but-2-enamido)-3,5-difluoro-benzoyl)-7-methoxy-10-(methoxymethyl)-9,12-dimethyl-9,12,13,14-tetra-hydroimidazo[4″,5″:5′,6′]-benzo[1′,2′:2,3]azocino-[4,5,6-hi]indolizin-11-ium) mono-(2,2,2-trifluoroacetate)]", "values": [{"measurement": "IC50", "result": 8.15, "unit": "nM"}]}
{"molecule": "COCc1nc2c3c(c(OC)cc2n1C)-c1cccn2c(C(=O)c4cc(F)c(NC(=O)/C=C/CN5CC[C@H](O)C5)c(F)c4)cc(c12)CCN3C", "note": "[Example 289, mono(2-(3,5-difluoro-4-((E)-4-((3S)-3-hydroxy-pyrrolidin-1-ium-1-yl)but-2-enamido)benzoyl)-7-methoxy-10-(methoxy-methyl)-9,12-dimethyl-9,12,13,14-tetrahydro-imidazo[4″,5″:5′,6′]benzo-[1′,2′:2,3]azocino[4,5,6-hi]indolizin-11-ium) mono(2,2,2-trifluoro-acetate)]", "values": [{"measurement": "IC50", "result": 68.8, "unit": "nM"}]}
{"molecule": "COCc1nc2c3c(c(OC)cc2n1C)-c1cccn2c(C(=O)c4cc(F)c(NC(=O)/C=C/CNC(C)(C)C5CC5)c(F)c4)cc(c12)CCN3C", "note": "[Example 290, mono((E)-2-(4-(4-((2-cyclopropylpropan-2-yl)-ammonio)but-2-enamido)-3,5-difluorobenzoyl)-7-methoxy-10-(methoxy-methyl)-9,12-dimethyl-9,12,13,14-tetrahydro-imidazo[4″,5″:5′,6′]benzo-[1′,2′:2,3]azocino[4,5,6-hi]indolizin-11-ium) mono(2,2,2-trifluoro-acetate)]", "values": [{"measurement": "IC50", "result": 11.1, "unit": "nM"}]}
{"molecule": "COCc1nc2c3c(c(OC)cc2n1C)-c1cccn2c(C(=O)c4cc(F)c(NC(=O)/C=C/CNC5CC6(COC6)C5)c(F)c4)cc(c12)CCN3C", "note": "[Example 291, (E)-4-((2-oxaspiro[3.3]-heptan-6-yl)amino)-N-(2,6-difluoro-4-(7-meth-oxy-10-(methoxymethyl)-9,12-dimethyl-9,12,13,14-tetrahydroimidazo[4″,5″: 5′,6′]benzo[1′,2′:2,3]-azocino[4,5,6-hi]indol-izine-2-carbonyl)phenyl) but-2-enamide]", "values": [{"measurement": "IC50", "result": 5.55, "unit": "nM"}]}
{"molecule": "Cc1nc2c3c(c(C(F)(F)F)cc2n1C)-c1cccn2c(C(=O)c4cc(F)c(NC(=O)C(F)=CCN5CCCC5CO)c(F)c4)cc(c12)CCO3", "note": "[Example 294, mono(2-(3,5-difluoro-4-((Z)-2-fluoro-4-(2S)-2-(hydroxymethyl)pyrrol-idin-1-ium-1-yl)but-2-enamido)benzoyl)-9,10-dimethyl-7-(trifluorometh-yl)-13,14-dihydro-9H-imidazo[4″,5″:5′,6′]benzo-[1′,2′:2,3]oxocino[4,5,6-hi]indolizin-11-ium) mono(2,2,2-trifluoro-acetate)]", "values": [{"measurement": "IC50", "result": 59.6, "unit": "nM"}]}
{"molecule": "Cc1nc2c3c(c(C(F)(F)F)cc2n1C)-c1cccn2c(C(=O)c4cc(F)c(NC(=O)/C(F)=C/CNCC5(CO)CC5)c(F)c4)cc(c12)CCO3", "note": "[Example 295, mono((Z)-2-(3,5-difluoro-4-(2-fluoro-4-(((1-(hydroxymethyl)cyclo-propyl)methyl)ammonio)-but-2-enamido)benzoyl)-9,10-dimethyl-7-(trifluoro-methyl)-13,14-dihydro-9H-imidazo[4″,5″:5′,6′]-benzo[1′,2′:2,3]oxocino-[4,5,6-hi]indolizin-11-ium) mono(2,2,2-trifluoro-acetate)]", "values": [{"measurement": "IC50", "result": 25.3, "unit": "nM"}]}
{"molecule": "Cc1nc2c3c(c(C(F)(F)F)cc2n1C)-c1cccn2c(C(=O)c4cc(F)c(NC(=O)/C(F)=C/CNC5CC6(COC6)C5)c(F)c4)cc(c12)CCO3", "note": "[Example 297, (Z)-4-((2-oxaspiro[3.3]-heptan-6-yl)amino)-N-(4-(9,10-dimethyl-7-(trifluoromethyl)-13,14-dihydro-9H-imidazo-[4″,5″:5′,6′]benzo[1′,2′: 2,3]oxocino[4,5,6-hi]-indolizine-2-carbonyl)-2,6-difluorophenyl)-2-fluorobut-2-enamide]", "values": [{"measurement": "IC50", "result": 26.7, "unit": "nM"}]}
{"molecule": "Cc1nc2c3c(c(OC(F)F)cc2n1C)-c1cccn2c(C(=O)c4cc(F)c(NC(=O)/C=C/CNC5(C)CC5)c(F)c4)cc(c12)CCN3C", "note": "[Example 300, (E)-N-(4-(7-(difluoromethoxy)-9,10,12-trimethyl-9,12,13,14-tetrahydroimidazo[4″,5″:5′,6′]benzo[1′,2′:2,3]azocino[4,5,6-hi]indolizine-2-carbonyl)-2,6-difluorophenyl)-4-((1-methylcyclopropyl)amino)but-2-enamide]", "values": [{"measurement": "IC50", "result": 1.22, "unit": "nM"}]}
{"molecule": "(2S)-1-((Z)-4-((4-(9,10- dimethyl-7-(trifluorometh- yl)-13,14-dihydro-9H- imidazo[4″,5″:5′,6′]benzo- [1′,2′:2,3loxocino[4,5,6- hi]indolizine-2-carbonyl)- 2,6-difluorophenyl)amino)- 3-fluoro-4-oxobut-2-en-1- yl)-2-(hydroxymethyl)- azetidin-1-ium2,2,2- trifluoroacetate [Example 262]", "values": [{"measurement": "IC50", "result": 15.1, "unit": "nM"}]}
{"molecule": "(Z)-N-(4-((4-(9,10-dimeth- yl-7-(trifluoromethyl)- 13,14-dihydro-9H-imid- azo[4″,5″:5′6′]benzo- [1′,2′:2,3]oxocino[4,5,6- hi]indolizine-2-carbonyl)- 2,6-difluorophenyl)amino)- 3-fluoro-4-oxobut-2-en-1- yl)-1-methylcyclopropan- 1-aminium2,2,2-trifluoro- acetate [Example 261]", "values": [{"measurement": "IC50", "result": 22.2, "unit": "nM"}]}
